# Entries after “also recorded” stand apart in the source; their conditions may differ.
# How the values were obtained:
# EGFR(L858R) = target: T1, EGFR(L858R) (Homo sapiens, UniProt P00533, L858R); experiment: KINOMEscan; type: binding; details: read-out: %Ctrl @ 1000 nM
# T1 construct: purchased DiscoveRx KINOMEscan
# FLT3(R834Q) = target: T2, FLT3(R834Q) (Homo sapiens, UniProt P36888, R834Q); experiment: KINOMEscan; type: binding; details: read-out: %Ctrl @ 1000 nM
# T2 construct: purchased DiscoveRx KINOMEscan
# CSNK1A1L = target: T3, CSNK1A1L (Homo sapiens, UniProt Q8N752); experiment: KINOMEscan; type: binding; details: read-out: %Ctrl @ 1000 nM
# T3 construct: purchased DiscoveRx KINOMEscan
# T3 sequence (Q8N752 whole entry): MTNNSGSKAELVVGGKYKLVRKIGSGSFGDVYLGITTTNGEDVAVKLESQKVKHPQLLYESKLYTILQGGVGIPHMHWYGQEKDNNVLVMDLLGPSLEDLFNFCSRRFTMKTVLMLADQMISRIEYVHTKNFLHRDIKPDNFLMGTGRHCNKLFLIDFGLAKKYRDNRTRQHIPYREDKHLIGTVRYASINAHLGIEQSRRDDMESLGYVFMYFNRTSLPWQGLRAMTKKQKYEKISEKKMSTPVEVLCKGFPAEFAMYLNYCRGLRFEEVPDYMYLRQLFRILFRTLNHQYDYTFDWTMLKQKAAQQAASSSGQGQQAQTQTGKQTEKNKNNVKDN
# CAMK4 = target: T4, CAMK4 (Homo sapiens, UniProt Q16566); experiment: KINOMEscan; type: binding; details: read-out: %Ctrl @ 1000 nM
# T4 construct: purchased DiscoveRx KINOMEscan
# LZK = target: T5, LZK (Homo sapiens, UniProt O43283); experiment: KINOMEscan; type: binding; details: read-out: %Ctrl @ 1000 nM
# T5 construct: purchased DiscoveRx KINOMEscan
# [1] = target: T6, ABL1(F317I)-phosphorylated (Homo sapiens, UniProt P00519, F317I); experiment: KINOMEscan; type: binding; details: read-out: %Ctrl @ 1000 nM
# T6 construct: purchased DiscoveRx (KINOMEscan service)
# ALK = target: T7, ALK (Homo sapiens, UniProt Q9UM73); experiment: KINOMEscan; type: binding; details: read-out: %Ctrl @ 1000 nM
# T7 construct: purchased DiscoveRx KINOMEscan
# PIP5K1A = target: T8, PIP5K1A (Homo sapiens, UniProt Q99755); experiment: KINOMEscan; type: binding; details: read-out: %Ctrl @ 1000 nM
# T8 construct: purchased DiscoveRx KINOMEscan
# T8 sequence (Q99755 whole entry): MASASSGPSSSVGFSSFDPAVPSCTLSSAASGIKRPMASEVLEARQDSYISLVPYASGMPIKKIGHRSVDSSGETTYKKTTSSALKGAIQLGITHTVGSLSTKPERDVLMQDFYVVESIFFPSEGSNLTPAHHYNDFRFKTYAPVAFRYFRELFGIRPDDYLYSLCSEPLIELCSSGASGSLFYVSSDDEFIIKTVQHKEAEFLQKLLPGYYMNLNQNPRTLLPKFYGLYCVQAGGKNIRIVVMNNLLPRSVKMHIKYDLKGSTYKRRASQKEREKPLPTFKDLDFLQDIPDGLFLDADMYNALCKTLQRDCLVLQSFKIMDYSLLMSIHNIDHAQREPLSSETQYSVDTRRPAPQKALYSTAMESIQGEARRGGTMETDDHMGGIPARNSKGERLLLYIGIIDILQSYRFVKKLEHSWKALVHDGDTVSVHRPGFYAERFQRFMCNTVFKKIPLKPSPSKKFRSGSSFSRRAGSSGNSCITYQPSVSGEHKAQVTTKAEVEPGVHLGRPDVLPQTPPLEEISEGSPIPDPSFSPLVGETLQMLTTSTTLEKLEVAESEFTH
# [2] = target: T9, RSK4(Kin.Dom.1-N-terminal) (Homo sapiens, UniProt Q9UK32); experiment: KINOMEscan; type: binding; details: read-out: %Ctrl @ 1000 nM
# T9 construct: RSK4(Kin.Dom.1-N-terminal); purchased DiscoveRx KINOMEscan
# MYLK4 = target: T10, MYLK4 (Homo sapiens, UniProt Q86YV6); experiment: KINOMEscan; type: binding; details: read-out: %Ctrl @ 1000 nM
# T10 construct: purchased DiscoveRx KINOMEscan
# MAP3K15 = target: T11, MAP3K15 (Homo sapiens, UniProt Q6ZN16); experiment: KINOMEscan; type: binding; details: read-out: %Ctrl @ 1000 nM
# T11 construct: purchased DiscoveRx KINOMEscan
# HUNK = target: T12, HUNK (Homo sapiens, UniProt P57058); experiment: KINOMEscan; type: binding; details: read-out: %Ctrl @ 1000 nM
# T12 construct: purchased DiscoveRx KINOMEscan
# CHEK1 = target: T13, CHEK1 (Homo sapiens, UniProt O14757); experiment: KINOMEscan; type: binding; details: read-out: %Ctrl @ 1000 nM
# T13 construct: purchased DiscoveRx KINOMEscan
# [3] = target: T14, ABL1(M351T)-phosphorylated (Homo sapiens, UniProt P00519, M351T); experiment: KINOMEscan; type: binding; details: read-out: %Ctrl @ 1000 nM
# T14 construct: purchased DiscoveRx (KINOMEscan service)
# [4] = target: T15, TYK2(JH1domain-catalytic) (Homo sapiens, UniProt P29597); experiment: KINOMEscan; type: binding; details: read-out: %Ctrl @ 1000 nM
# T15 construct: TYK2(JH1domain-catalytic); purchased DiscoveRx KINOMEscan
# HPK1 = target: T16, HPK1 (Homo sapiens, UniProt Q92918); experiment: KINOMEscan; type: binding; details: read-out: %Ctrl @ 1000 nM
# T16 construct: purchased DiscoveRx KINOMEscan
# PIK3CA(I800L) = target: T17, PIK3CA(I800L) (Homo sapiens, UniProt P42336, I800L); experiment: KINOMEscan; type: binding; details: read-out: %Ctrl @ 1000 nM
# T17 construct: purchased DiscoveRx KINOMEscan
# PHKG2 = target: T18, PHKG2 (Homo sapiens, UniProt P15735); experiment: KINOMEscan; type: binding; details: read-out: %Ctrl @ 1000 nM
# T18 construct: purchased DiscoveRx KINOMEscan
# SMYD2 = SMYD2 (Homo sapiens, UniProt Q9NRG4); experiment: Mechanism-of-inhibition studies (SPA, Cheng-Prusoff); type: biochemical; design: The SMYD2 full-length enzyme with an N-terminal 6xHis tag was expressed in Escherichia coli; made in house; host or cells: Escherichia coli
# Sequence of SMYD2 (Q9NRG4 whole entry): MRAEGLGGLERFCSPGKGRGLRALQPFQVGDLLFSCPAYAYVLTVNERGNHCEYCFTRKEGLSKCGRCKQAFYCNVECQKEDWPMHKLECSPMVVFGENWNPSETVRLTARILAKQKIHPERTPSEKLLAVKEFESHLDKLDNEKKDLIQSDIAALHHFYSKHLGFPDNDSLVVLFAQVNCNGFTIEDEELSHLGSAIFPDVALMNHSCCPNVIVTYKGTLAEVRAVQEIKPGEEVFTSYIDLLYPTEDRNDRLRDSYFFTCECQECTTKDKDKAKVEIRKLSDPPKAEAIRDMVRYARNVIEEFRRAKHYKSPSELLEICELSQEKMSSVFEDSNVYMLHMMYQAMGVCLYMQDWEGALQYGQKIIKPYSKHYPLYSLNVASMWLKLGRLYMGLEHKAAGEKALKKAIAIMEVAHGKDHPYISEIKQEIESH
# CSNK1G2 = target: T19, CSNK1G2 (Homo sapiens, UniProt P78368); experiment: KINOMEscan; type: binding; details: read-out: %Ctrl @ 1000 nM
# T19 construct: purchased DiscoveRx KINOMEscan
# PIK3C2B = target: T20, PIK3C2B (Homo sapiens, UniProt O00750); experiment: KINOMEscan; type: binding; details: read-out: %Ctrl @ 1000 nM
# T20 construct: purchased DiscoveRx KINOMEscan
# T20 sequence (O00750 whole entry): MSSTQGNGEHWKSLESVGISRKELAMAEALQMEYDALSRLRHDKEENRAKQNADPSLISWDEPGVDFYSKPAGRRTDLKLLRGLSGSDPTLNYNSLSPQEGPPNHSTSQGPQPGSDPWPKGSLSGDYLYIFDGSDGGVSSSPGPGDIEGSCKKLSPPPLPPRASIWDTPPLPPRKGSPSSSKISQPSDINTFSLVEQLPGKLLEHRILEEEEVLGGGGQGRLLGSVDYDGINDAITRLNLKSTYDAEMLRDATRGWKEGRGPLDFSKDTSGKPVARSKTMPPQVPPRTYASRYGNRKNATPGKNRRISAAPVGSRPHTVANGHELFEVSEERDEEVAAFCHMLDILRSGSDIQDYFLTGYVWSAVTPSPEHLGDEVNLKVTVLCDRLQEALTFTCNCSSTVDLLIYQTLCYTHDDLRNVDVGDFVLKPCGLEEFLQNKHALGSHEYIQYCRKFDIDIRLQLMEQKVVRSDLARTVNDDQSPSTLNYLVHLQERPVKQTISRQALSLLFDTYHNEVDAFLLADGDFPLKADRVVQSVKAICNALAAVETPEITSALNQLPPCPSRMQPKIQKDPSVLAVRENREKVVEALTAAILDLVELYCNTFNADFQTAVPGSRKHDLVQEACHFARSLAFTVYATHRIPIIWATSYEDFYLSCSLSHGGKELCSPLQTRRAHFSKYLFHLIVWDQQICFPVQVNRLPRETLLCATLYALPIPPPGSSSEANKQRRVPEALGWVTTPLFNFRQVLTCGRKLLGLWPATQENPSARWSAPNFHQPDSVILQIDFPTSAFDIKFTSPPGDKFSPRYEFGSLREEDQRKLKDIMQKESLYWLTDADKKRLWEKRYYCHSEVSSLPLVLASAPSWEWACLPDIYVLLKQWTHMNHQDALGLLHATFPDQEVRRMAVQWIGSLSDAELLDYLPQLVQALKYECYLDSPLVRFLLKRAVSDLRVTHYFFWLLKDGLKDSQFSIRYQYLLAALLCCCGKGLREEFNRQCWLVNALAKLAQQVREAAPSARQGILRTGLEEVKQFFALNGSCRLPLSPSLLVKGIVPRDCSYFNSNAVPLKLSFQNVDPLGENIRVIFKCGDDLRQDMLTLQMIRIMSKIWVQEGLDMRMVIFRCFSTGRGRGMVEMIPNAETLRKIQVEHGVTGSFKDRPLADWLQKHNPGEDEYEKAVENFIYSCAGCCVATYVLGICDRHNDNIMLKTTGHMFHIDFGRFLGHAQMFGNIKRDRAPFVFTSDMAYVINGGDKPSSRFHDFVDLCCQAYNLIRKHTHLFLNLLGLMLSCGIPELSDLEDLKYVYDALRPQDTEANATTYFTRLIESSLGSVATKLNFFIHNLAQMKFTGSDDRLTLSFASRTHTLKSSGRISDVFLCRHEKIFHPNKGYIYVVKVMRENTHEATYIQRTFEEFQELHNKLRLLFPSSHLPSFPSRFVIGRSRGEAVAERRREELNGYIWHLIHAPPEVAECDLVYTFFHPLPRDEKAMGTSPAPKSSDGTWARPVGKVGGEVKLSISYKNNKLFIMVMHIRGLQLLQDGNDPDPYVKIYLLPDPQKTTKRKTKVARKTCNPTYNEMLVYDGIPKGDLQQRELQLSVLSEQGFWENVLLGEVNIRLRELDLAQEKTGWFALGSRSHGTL
# MYO3B = target: T21, MYO3B (Homo sapiens, UniProt Q8WXR4); experiment: KINOMEscan; type: binding; details: read-out: %Ctrl @ 1000 nM
# T21 construct: purchased DiscoveRx KINOMEscan
# [5] = target: T22, RSK2(Kin.Dom.1-N-terminal) (Homo sapiens, UniProt P51812); experiment: KINOMEscan; type: binding; details: read-out: %Ctrl @ 1000 nM
# T22 construct: RSK2(Kin.Dom.1-N-terminal); purchased DiscoveRx KINOMEscan
# INSRR = target: T23, INSRR (Homo sapiens, UniProt P14616); experiment: KINOMEscan; type: binding; details: read-out: %Ctrl @ 1000 nM
# T23 construct: purchased DiscoveRx KINOMEscan
# ERK5 = target: T24, ERK5 (Homo sapiens, UniProt Q13164); experiment: KINOMEscan; type: binding; details: read-out: %Ctrl @ 1000 nM
# T24 construct: purchased DiscoveRx KINOMEscan
# KIT(V559D,T670I) = target: T25, KIT(V559D,T670I) (Homo sapiens, UniProt P10721, T670I/V559D); experiment: KINOMEscan; type: binding; details: read-out: %Ctrl @ 1000 nM
# T25 construct: purchased DiscoveRx KINOMEscan
# T25 sequence (P10721 26-976 V559D/T670I): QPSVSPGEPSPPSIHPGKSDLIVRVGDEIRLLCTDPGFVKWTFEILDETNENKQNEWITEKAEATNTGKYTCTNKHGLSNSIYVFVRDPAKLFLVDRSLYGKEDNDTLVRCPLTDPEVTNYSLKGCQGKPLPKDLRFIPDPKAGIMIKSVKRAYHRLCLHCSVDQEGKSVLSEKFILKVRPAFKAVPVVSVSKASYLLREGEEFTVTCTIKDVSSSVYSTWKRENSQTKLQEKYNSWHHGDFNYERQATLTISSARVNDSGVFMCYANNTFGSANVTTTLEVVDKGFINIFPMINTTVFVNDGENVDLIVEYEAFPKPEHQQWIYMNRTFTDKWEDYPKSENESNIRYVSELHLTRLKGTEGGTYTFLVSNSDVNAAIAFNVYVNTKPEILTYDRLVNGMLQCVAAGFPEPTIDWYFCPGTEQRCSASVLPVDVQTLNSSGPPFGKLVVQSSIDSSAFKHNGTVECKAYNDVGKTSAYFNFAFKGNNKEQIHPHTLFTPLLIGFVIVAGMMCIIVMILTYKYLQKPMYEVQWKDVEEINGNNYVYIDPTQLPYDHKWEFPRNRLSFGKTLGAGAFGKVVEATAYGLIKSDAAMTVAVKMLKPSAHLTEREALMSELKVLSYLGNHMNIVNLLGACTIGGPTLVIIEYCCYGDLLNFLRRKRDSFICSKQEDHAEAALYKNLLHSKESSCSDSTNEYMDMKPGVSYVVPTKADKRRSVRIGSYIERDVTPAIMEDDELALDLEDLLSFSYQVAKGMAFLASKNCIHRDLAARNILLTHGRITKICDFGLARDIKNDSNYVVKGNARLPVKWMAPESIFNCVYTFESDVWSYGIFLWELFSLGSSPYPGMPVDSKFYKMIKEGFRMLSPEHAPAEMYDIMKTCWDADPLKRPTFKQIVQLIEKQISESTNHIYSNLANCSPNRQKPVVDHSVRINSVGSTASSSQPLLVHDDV
# CSNK1G1 = target: T26, CSNK1G1 (Homo sapiens, UniProt Q9HCP0); experiment: KINOMEscan; type: binding; details: read-out: %Ctrl @ 1000 nM
# T26 construct: purchased DiscoveRx KINOMEscan
# T26 sequence (Q9HCP0 whole entry): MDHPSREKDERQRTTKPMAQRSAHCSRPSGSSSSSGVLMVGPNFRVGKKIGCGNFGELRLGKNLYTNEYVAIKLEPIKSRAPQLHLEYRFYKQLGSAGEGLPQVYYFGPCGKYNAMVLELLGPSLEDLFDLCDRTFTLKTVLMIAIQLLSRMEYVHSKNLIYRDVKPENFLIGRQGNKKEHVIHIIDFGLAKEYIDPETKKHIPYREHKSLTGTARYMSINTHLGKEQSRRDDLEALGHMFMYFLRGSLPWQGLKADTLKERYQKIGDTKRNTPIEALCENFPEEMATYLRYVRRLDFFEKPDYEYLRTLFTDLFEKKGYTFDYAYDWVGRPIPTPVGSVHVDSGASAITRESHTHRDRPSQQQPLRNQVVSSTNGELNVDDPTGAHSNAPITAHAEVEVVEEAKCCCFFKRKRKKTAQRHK
# NEK4 = target: T27, NEK4 (Homo sapiens, UniProt P51957); experiment: KINOMEscan; type: binding; details: read-out: %Ctrl @ 1000 nM
# T27 construct: purchased DiscoveRx KINOMEscan
# PCTK2 = target: T28, PCTK2 (Homo sapiens, UniProt Q00537); experiment: KINOMEscan; type: binding; details: read-out: %Ctrl @ 1000 nM
# T28 construct: purchased DiscoveRx KINOMEscan
# T28 sequence (Q00537 whole entry): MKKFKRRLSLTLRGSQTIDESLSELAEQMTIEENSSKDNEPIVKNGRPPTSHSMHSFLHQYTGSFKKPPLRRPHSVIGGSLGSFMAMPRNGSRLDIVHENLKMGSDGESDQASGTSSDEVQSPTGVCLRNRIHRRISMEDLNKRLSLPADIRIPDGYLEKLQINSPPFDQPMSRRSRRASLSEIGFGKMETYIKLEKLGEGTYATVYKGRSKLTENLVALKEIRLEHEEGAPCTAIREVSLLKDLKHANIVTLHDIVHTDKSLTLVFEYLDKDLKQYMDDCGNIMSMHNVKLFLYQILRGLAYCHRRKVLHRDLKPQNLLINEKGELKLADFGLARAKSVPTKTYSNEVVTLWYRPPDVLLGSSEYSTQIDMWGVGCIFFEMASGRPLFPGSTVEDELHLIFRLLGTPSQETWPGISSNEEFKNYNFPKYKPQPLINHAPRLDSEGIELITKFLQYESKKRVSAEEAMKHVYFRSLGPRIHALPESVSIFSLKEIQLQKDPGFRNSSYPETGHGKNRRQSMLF
# GRK7 = target: T29, GRK7 (Homo sapiens, UniProt Q8WTQ7); experiment: KINOMEscan; type: binding; details: read-out: %Ctrl @ 1000 nM
# T29 construct: purchased DiscoveRx KINOMEscan
# MKNK1 = target: T30, MKNK1 (Homo sapiens, UniProt Q9BUB5); experiment: KINOMEscan; type: binding; details: read-out: %Ctrl @ 1000 nM
# T30 construct: purchased DiscoveRx KINOMEscan
# RIPK2 = target: T31, RIPK2 (Homo sapiens, UniProt O43353); experiment: KINOMEscan; type: binding; details: read-out: %Ctrl @ 1000 nM
# T31 construct: purchased DiscoveRx KINOMEscan
# MYO3A = target: T32, MYO3A (Homo sapiens, UniProt Q8NEV4); experiment: KINOMEscan; type: binding; details: read-out: %Ctrl @ 1000 nM
# T32 construct: purchased DiscoveRx KINOMEscan
# BRSK2 = target: T33, BRSK2 (Homo sapiens, UniProt Q8IWQ3); experiment: KINOMEscan; type: binding; details: read-out: %Ctrl @ 1000 nM
# T33 construct: purchased DiscoveRx KINOMEscan
# AXL = target: T34, AXL (Homo sapiens, UniProt P30530); experiment: KINOMEscan; type: binding; details: read-out: %Ctrl @ 1000 nM
# T34 construct: purchased DiscoveRx KINOMEscan
# MRCKB = target: T35, MRCKB (Homo sapiens, UniProt Q9Y5S2); experiment: KINOMEscan; type: binding; details: read-out: %Ctrl @ 1000 nM
# T35 construct: purchased DiscoveRx KINOMEscan
# KIT(V559D) = target: T36, KIT(V559D) (Homo sapiens, UniProt P10721, V559D); experiment: KINOMEscan; type: binding; details: read-out: %Ctrl @ 1000 nM
# T36 construct: purchased DiscoveRx KINOMEscan
# T36 sequence (P10721 26-976 V559D): as the sequence (P10721 26-976 V559D/T670I) above, with I645T counted along it
# PLK3 = target: T37, PLK3 (Homo sapiens, UniProt Q9H4B4); experiment: KINOMEscan; type: binding; details: read-out: %Ctrl @ 1000 nM
# T37 construct: purchased DiscoveRx KINOMEscan
# BMX = target: T38, BMX (Homo sapiens, UniProt P51813); experiment: KINOMEscan; type: binding; details: read-out: %Ctrl @ 1000 nM
# T38 construct: purchased DiscoveRx KINOMEscan
# DAPK2 = target: T39, DAPK2 (Homo sapiens, UniProt Q9UIK4); experiment: KINOMEscan; type: binding; details: read-out: %Ctrl @ 1000 nM
# T39 construct: purchased DiscoveRx KINOMEscan
compound,measurement,setting,value
CCN(C(=O)CO)[C@H]1CN(/C(=N\C#N)Nc2cccc(OC(F)F)c2)N=C1c1ccc(Cl)c(Cl)c1 [(S)-4],remaining binding at 1 µM,EGFR(L858R),91%
same,remaining binding at 1 µM,FLT3(R834Q),100%
same,remaining binding at 1 µM,CSNK1A1L,94%
same,remaining binding at 1 µM,CAMK4,82%
same,remaining binding at 1 µM,LZK,83%
same,remaining binding at 1 µM,[1],98%
same,remaining binding at 1 µM,ALK,93%
same,remaining binding at 1 µM,PIP5K1A,70%
same,remaining binding at 1 µM,[2],92%
same,remaining binding at 1 µM,MYLK4,100%
same,remaining binding at 1 µM,MAP3K15,69%
same,remaining binding at 1 µM,HUNK,94%
same,remaining binding at 1 µM,CHEK1,98%
same,remaining binding at 1 µM,[3],91%
same,remaining binding at 1 µM,[4],88%
same,remaining binding at 1 µM,HPK1,88%
same,remaining binding at 1 µM,PIK3CA(I800L),90%
same,remaining binding at 1 µM,PHKG2,99%
same,Mode of inhibition / mode of action,SMYD2,"peptide-competitive, SAM-uncompetitive inhibitor; also recorded: substrate competitive"
same,remaining binding at 1 µM,CSNK1G2,94%
same,remaining binding at 1 µM,PIK3C2B,100%
same,remaining binding at 1 µM,MYO3B,96%
same,remaining binding at 1 µM,[5],99%
same,remaining binding at 1 µM,INSRR,85%
same,remaining binding at 1 µM,ERK5,80%
same,remaining binding at 1 µM,"KIT(V559D,T670I)",100%
same,remaining binding at 1 µM,CSNK1G1,84%
same,remaining binding at 1 µM,NEK4,100%
same,remaining binding at 1 µM,PCTK2,91%
same,remaining binding at 1 µM,GRK7,100%
same,remaining binding at 1 µM,MKNK1,100%
same,remaining binding at 1 µM,RIPK2,75%
same,remaining binding at 1 µM,MYO3A,100%
same,remaining binding at 1 µM,BRSK2,74%
same,remaining binding at 1 µM,AXL,91%
same,remaining binding at 1 µM,MRCKB,100%
same,remaining binding at 1 µM,KIT(V559D),99%
same,remaining binding at 1 µM,PLK3,89%
same,remaining binding at 1 µM,BMX,89%
same,remaining binding at 1 µM,DAPK2,100%

# Reference: PMC4917279 (Journal of Medicinal Chemistry, 2016)
